The test deals with T1, human PAH with the R408W mutation (Homo sapiens, UniProt P00439, R408W).
T1 construct: expressed in transfected cells
T1 sequence (P00439 1-452 R408W): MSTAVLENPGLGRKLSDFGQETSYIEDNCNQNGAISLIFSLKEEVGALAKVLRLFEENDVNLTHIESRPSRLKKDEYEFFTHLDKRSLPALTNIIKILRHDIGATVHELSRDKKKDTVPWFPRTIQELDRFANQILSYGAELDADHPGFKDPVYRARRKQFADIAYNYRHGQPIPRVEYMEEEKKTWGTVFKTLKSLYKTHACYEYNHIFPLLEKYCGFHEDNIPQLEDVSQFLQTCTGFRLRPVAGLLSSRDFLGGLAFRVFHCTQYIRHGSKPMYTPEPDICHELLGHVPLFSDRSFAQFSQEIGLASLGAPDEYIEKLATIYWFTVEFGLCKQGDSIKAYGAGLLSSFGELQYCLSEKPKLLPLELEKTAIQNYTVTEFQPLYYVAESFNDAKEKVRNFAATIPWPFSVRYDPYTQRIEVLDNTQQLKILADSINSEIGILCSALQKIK
Briefly: Cell Based Phenylalanine Flux Assay. To be noted: A375 cells expressing human R408W PAH, 13C-Tyrosine by LC-MS, average where tested multiple times, read-out: AC50.

Read-outs that look alike come from different tables or passages of the source.

For `O=C(c1nc2ccccc2s1)N1CCc2[nH]cnc2C1c1nc2cccc(F)c2s1` (centres unmarked), the AC50 (usually the midpoint of the concentration-response curve, whichever way the signal moves) (24 hrs with compound) is > 5000 nM. Same read-out and setting: with `O=C(c1cnn2cc(Cl)ccc12)N1CCc2[nH]cnc2C1c1nc2ccccc2[nH]1` (centres unmarked) the figure was > 5000 nM. For `O=C(CC1CC1)N1CCc2[nH]cnc2[C@H]1c1nc2cc(F)ccc2s1` [Example 1135, (S)-2-cyclopropyl-1-(4-(5-fluorobenzo[d]thiazol-2-yl)-6,7-dihydro-1H-imidazo[4,5-c]pyridin-5(4H)-yl)ethanone], the AC50 (24 hrs compound incubation) is 500 to 1000 nM.

For the molecule `O=C(c1oc(C2(O)CC2)nc1C(F)F)N1CCc2[nH]cnc2[C@H]1c1nc2ccccc2s1` [Example 2055], the AC50 (24 hrs compound incubation) is < 500 nM. As for `O=C(CCc1nccs1)N1CCc2[nH]cnc2[C@@H]1c1nc2ccc(Br)cc2s1` [Example 1082, (R)-1-(4-(6-bromobenzo[d]thiazol-2-yl)-6,7-dihydro-1H-imidazo[4,5-c]pyridin-5(4H)-yl)-3-(thiazol-2-yl)propan-1-one], under “24 hrs compound incubation”, the AC50 is > 5000 nM.

As for `C[C@@H]1CN(C(=O)c2ocnc2C2CC2)[C@@H](c2nc3c(F)cccc3s2)c2nc[nH]c21` [Example 1552, (4-cyclopropyloxazol-5-yl)((4R,7R)-4-(4-fluorobenzo[d]thiazol-2-yl)-7-methyl-6,7-dihydro-1H-imidazo[4,5-c]pyridin-5(4H)-yl)methanone], the AC50 (24 hrs compound incubation) is 1000 to 5000 nM. The same measure, in the same setting: the figure for `O=C(c1ocnc1C(F)(F)F)N1CC2(CC2)c2[nH]cnc2[C@H]1c1nc2ccccc2s1` [Example 1668, (S)-(4′-(benzo[d]thiazol-2-yl)spiro[cyclopropane-1,7′-imidazo[4,5-c]pyridin]-5′(1′H,4′H,6′H)-yl)(4-(trifluoromethyl)oxazol-5-yl)methanone] is < 500 nM; for `Cc1nc(C2(O)CCC2)oc1C(=O)N1CCc2[nH]cnc2[C@H]1c1nc2c(F)cccc2s1` [Example 1913, (S)-(4-(4-fluorobenzo[d]thiazol-2-yl)-6,7-dihydro-1H-imidazo[4,5-c]pyridin-5(4H)-yl)(2-(1-hydroxycyclobutyl)-4-methyloxazol-5-yl)methanone] it is 500 to 1000 nM. For the molecule `CC(C)(O)c1nc(C(F)(F)F)c(C(=O)N2CC3(CC3)c3[nH]cnc3[C@@H]2c2nc3ccccc3s2)o1` [Example 1680, (R)-(4′-(benzo[d]thiazol-2-yl)spiro[cyclopropane-1,7′-imidazo[4,5-c]pyridin]-5′(1′H,4′H,6′H)-yl)(2-(2-hydroxypropan-2-yl)-4-(trifluoromethyl)oxazol-5-yl)methanone], the AC50 (24 hrs compound incubation) is 1000 to 5000 nM. Still for that read-out and setting: with `CC(C)(C#N)c1nc(C(F)F)c(C(=O)N2CCc3[nH]cnc3[C@H]2c2nc3c(F)cccc3s2)o1` [Example 2027] the figure was < 500 nM; with `O=C(c1ncn2ccccc12)N1CCc2[nH]cnc2[C@H]1c1nc2cc(F)ccc2s1` [Example 1105, (S)-(4-(5-fluorobenzo[d]thiazol-2-yl)-6,7-dihydro-1H-imidazo[4,5-c]pyridin-5(4H)-yl)(imidazo[1,5-a]pyridin-1-yl)methanone], 500 to 1000 nM.

On to `O=C(c1cnn2ccc(Cl)cc12)N1CCc2[nH]cnc2[C@H]1c1nc2cc(F)ccc2s1` [Example 1167], for which, under “24 hrs compound incubation”, the AC50 is 500 to 1000 nM. As to `COC(=O)N1CC(C(=O)N2CCc3[nH]cnc3C2c2nc3c(F)cccc3s2)C1` (centres unmarked), the AC50 (24 hrs with compound) fell in the range of 1000 to 5000 nM.

Turning to `CC(C)(O)c1ncc(C(=O)N2CCc3[nH]cnc3[C@@H]2c2nc3c(F)cccc3s2)s1` [Example 1478, (R)-(4-(4-fluorobenzo[d]thiazol-2-yl)-6,7-dihydro-1H-imidazo[4,5-c]pyridin-5(4H)-yl)(2-(2-hydroxypropan-2-yl)thiazol-5-yl)methanone], the half-maximal activity concentration (AC50) (24 hrs compound incubation) was in the range of 1000 to 5000 nM. Still for that read-out and setting: the figure for `O=C(c1cnsc1)N1CCc2[nH]cnc2[C@@H]1c1nc2ccccc2s1` [Example 1062, (R)-(4-(benzo[d]thiazol-2-yl)-6,7-dihydro-1H-imidazo[4,5-c]pyridin-5(4H)-yl)(isothiazol-4-yl)methanone] is > 5000 nM. The same measure, in the same setting: with `O=C(c1cnn2ccc(Br)cc12)N1CCc2[nH]cnc2[C@@H]1c1nc2ccccc2s1` [Example 1048, (R)-(4-(benzo[d]thiazol-2-yl)-6,7-dihydro-1H-imidazo[4,5-c]pyridin-5(4H)-yl)(5-bromopyrazolo[1,5-a]pyridin-3-yl)methanone] the figure was 1000 to 5000 nM; with `O=C(CC1CCC1)N1CCc2[nH]cnc2[C@@H]1c1nc2ccccc2s1` [Example 1308, (R)-1-(4-(benzo[d]thiazol-2-yl)-6,7-dihydro-1H-imidazo[4,5-c]pyridin-5(4H)-yl)-2-cyclobutylethanone], 1000 to 5000 nM.

The values above are taken from US20250171438A1 (Agios Pharmaceuticals, Inc., priority 2022, published 2025).
